Experimental data reported in patent US20160022636A1, “PHYSIOLOGICAL LIGANDS FOR GPR139” (JANSSEN PHARMACEUTICA NV, priority 2013, published 2016).
Where “and” joins values, the source holds several entries; their conditions need not be identical. Equal values may be shown once. Read-outs that look alike come from different tables or passages of the source.

Legend:
GPR139 [1] = biological target: T1, GPR139 (Homo sapiens, UniProt Q6DWJ6); assay: calcium mobilization assay (FLIPR), GPR139 transiently expressed in HEK293 cells; format: cell-based; design: expressed in transfected cells; host or cells: HEK293
T1 sequence (Q6DWJ6 1-353): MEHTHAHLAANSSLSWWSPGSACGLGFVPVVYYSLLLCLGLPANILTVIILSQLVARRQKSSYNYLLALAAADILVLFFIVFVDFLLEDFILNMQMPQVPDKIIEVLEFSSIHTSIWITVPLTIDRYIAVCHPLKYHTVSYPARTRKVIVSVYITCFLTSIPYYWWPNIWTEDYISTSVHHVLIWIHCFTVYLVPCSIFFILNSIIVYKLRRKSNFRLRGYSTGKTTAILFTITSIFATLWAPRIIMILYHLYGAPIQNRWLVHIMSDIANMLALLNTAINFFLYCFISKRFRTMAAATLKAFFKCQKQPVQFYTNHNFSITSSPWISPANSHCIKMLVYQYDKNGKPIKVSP
From the text: For these experiments human GPR139 was transiently expressed in HEK293 cells and calcium mobilization was stimulated using L-Trp, L-Phe or their derivatives.

GO2Q alone = assay: GTPγS binding assay, control membranes from COS7 cells expressing GO2Q alone (Ct-GO2Q); format: biochemical
From the text: Human (A and B) or mouse (C and D) GPR139 were co-transfected with chimeric G-protein GO2Q into COS7 cells. Cell membranes from transfected cells were used in GTPγS binding studies using various ligands at different concentrations to stimulate GPR139. Membranes from COS7 cells transfected by GO2Q were used as the controls (E and F).
(§1) In order identify the ligands for GPR139 two improvements in the detection assay were made to allow for the ligands to be detected. First, we chose to use a GTPγS binding assay instead of using live cultured cells. The GTPγS binding assay is a cell free system that uses the cell membrane of the cell(s) of interest rather than the live cell(s). One advantage of this assay is that potential ligands present in the cell culture media are washed away when the cell membrane is prepared. This reduces the basal level of signal and increase the chance of detecting receptor ligands when assessing compounds that activate the receptor. Second, a GO2Q chimeric G-protein was created to be co-expressed with GPR139 in order to increase the signal-to-noise ratio in the GTPγS binding assay. Historically, the Gi, Go coupled GPCRs offer much greater signal-to-noise ratio in GTPγS binding studies. For Gs and Gq coupled GPCRs, although ligand-stimulated specific signals can be detected in a GTPγS binding assay, the signal-to-noise ratios are often very small. To address this a chimeric GO2-Gq chimeric G-protein, GO2Q, with the N-terminus from Go2 protein and the C-terminus from Gq protein.
(§2) To test for compounds that activate GPR139, different amino acids and their derivatives (Table 2) were tested as ligands in the GTPγS binding assay using cell membranes from COS7 cells co-expressing GPR139 and GO2Q. Cell membrane from COS7 cells expressing GO2Q alone or co-expressing other GPCRs were also tested in GTPγS binding assay in parallel as controls. Each compound was tested in triplicate.

GPR139 [2] = biological target: T1, GPR139; assay: GTPγS binding assay, membranes from COS7 cells co-expressing GPR139 and GO2Q, single concentration screen; format: biochemical; design: expressed in transfected cells; host or cells: COS7; settings: 1 mM final concentration; single wells of triplicate; COS7 membranes co-expressing GPR139 and GO2Q
Method: as §1, §2

[3] = HEK293, calcium mobilization at 300 μM as percentage of that observed for L-phenylalanine, read-out: % L-phenylalanine at 300 μM (average)
[4] = 1 mM final concentration, single wells of triplicate, COS7 membranes with GO2Q alone (control panel)
[5] = calcium mobilization at 300 μM as percentage of that observed for L-phenylalanine

Row | activation at 300 µM (GPR139 [1]; [3]) | SMILES | Activation levels (GTPγS binding signal), Ct-GO2Q (GO2Q alone; [4]) | Activation levels of GPR139 (GTPγS binding signal), GPR139-GO2Q (GPR139 [2]) | further results
1 |  | N[C@@H](Cc1ccc(Br)cc1)C(=O)O [4-Bromo-L-phenylalanine] |  |  | activation at 300 µM (GPR139 [1]; HEK293, read-out: % L-phenylalanine at 300 μM (average)): 153%
2 | 110% | N[C@H](Cc1ccc(Cl)cc1)C(=O)O [4-Chloro-D-phenylalanine] |  |  | 
3 | 146% | N[C@@H](Cc1ccc(Cl)cc1)C(=O)O [4-Chloro-L-phenylalanine] |  |  | 
4 | 91% | N[C@H](Cc1ccc(F)cc1)C(=O)O [4-Fluoro-D-phenylalanine] |  |  | 
5 | 132% | N[C@@H](Cc1ccc(F)cc1)C(=O)O [4-Fluoro-L-phenylalanine] |  |  | 
6 | 128% | COc1ccc(C[C@H](N)C(=O)O)cc1 [4-Methoxy-L-phenylalanine] |  |  | 
7 | 102% | Cc1ccc(C[C@@H](N)C(=O)O)cc1 [4-Methyl-D-phenylalanine] |  |  | 
8 | 149% | Cc1ccc(C[C@H](N)C(=O)O)cc1 [4-Methyl-L-phenylalanine] |  |  | 
9 | 111% | N[C@H](Cc1ccc([N+](=O)[O-])cc1)C(=O)O [4-Nitro-D-phenylalanine] |  |  | 
10 | 150% | N[C@@H](Cc1ccc(C(F)(F)F)cc1)C(=O)O [4-Trifluoromethyl-L-phenylalanine] |  |  | 
11 | 115% | CC(C)(C)c1ccc(C[C@H](N)C(=O)O)cc1 [4-tert-Butyl-L-phenylalanine] |  |  | 
12 |  | CNCC(O)c1ccc(O)c(O)c1 (stereo not shown) [Adrenaline] | 2240 and 2117 and 2045 | 2721 and 2624 and 2670 | 
13 |  | C[C@H](N)C(=O)O [Ala] | 1903 and 2049 and 2139 | 2363 and 2348 and 2439 | 
14 |  | N=C(N)NCCC[C@H](N)C(=O)O [Arg] |  | 2806 and 2783 and 2528 | Activation levels (GTPγS binding signal), Ct-GO2Q (GO2Q alone): 2171 and 2131 and 2255
15 |  | NC(=O)C[C@H](N)C(=O)O [Asn] | 2195 and 2142 and 2133 | 2806 and 2483 and 2547 | 
16 |  | N[C@@H](CC(=O)O)C(=O)O [Asp] | 2177 and 2137 and 2132 | 2758 and 2922 and 2925 | 
17 |  | N[C@@H](CS)C(=O)O [Cys] | 1928 and 2132 and 2114 | 2168 and 2458 and 2336 | 
18 |  | N[C@@H](CSSC[C@H](N)C(=O)O)C(=O)O [Cystine] | 2242 and 2149 and 2229 | 2501 and 2652 and 2258 | 
19 | 129% | N[C@H](CCCc1ccccc1)C(=O)O [D-2-Amino-5-phenyl-pentanoic acid] |  |  | 
20 |  | NCCc1ccc(O)c(O)c1 [DA] | 2250 and 2213 and 2319 | 2688 and 2825 and 2708 | 
21 |  | NC(=O)CC[C@H](N)C(=O)O [Gln] | 2181 and 2327 and 2336 | 2583 and 2525 and 2766 | 

Row | activation at 300 µM (GPR139 [1]; [3]) | SMILES | Activation levels (GTPγS binding signal), Ct-GO2Q (GO2Q alone; [4]) | Activation levels of GPR139 (GTPγS binding signal), GPR139-GO2Q (GPR139 [2]) | further results
22 |  | N[C@@H](CCC(=O)O)C(=O)O [Glu] | 2242 and 2310 and 2311 | 2847 and 2837 and 2841 | 
23 |  | NCC(=O)O [Gly] | 1936 and 2133 and 2289 | 2560 and 2505 and 2414 | 
24 |  | NCCc1c[nH]cn1 [HA, histamine] | 2186 and 2204 and 2199 | 2737 and 2863 and 2899 | 
25 |  | O=C(O)[C@@H]1C[C@@H](O)CN1 [HO-Pro] | 2166 and 2152 and 2189 | 2825 and 2797 and 3109 | 
26 |  | N[C@@H](Cc1c[nH]cn1)C(=O)O [His] | 2308 and 2259 and 2197 | 2640 and 2499 | 
27 |  | CC[C@H](C)[C@H](N)C(=O)O [Ile] | 2266 and 2222 and 2253 | 2760 and 2542 and 2903 | 
28 |  | O=C(O)[C@@H]1Cc2c([nH]c3ccccc23)CN1 [L-1,2,3,4-tetrahydronorharman-3-carboxylic acid] |  |  | % L-phenylalanine at 300 μM (average) (GPR139 [1]; [5]): 151%
29 |  | CC(C)C[C@H](N)C(=O)O [Leu] | 2194 and 2213 and 2167 | 2621 and 2544 and 2437 | 
30 |  | NCCCC[C@H](N)C(=O)O [Lys] | 2400 and 2138 and 2041 | 2433 and 2617 and 2589 | 
31 |  | CSCC[C@H](N)C(=O)O [Met] | 2173 and 2307 and 2276 | 2657 and 2829 and 2802 | 
32 |  | NCC(O)c1ccc(O)cc1 (stereo not shown) [Octopamine] | 2087 and 2140 and 2142 | 2554 and 2675 and 2831 | 
33 |  | O=C(O)[C@@H]1CCCN1 [Pro] | 2256 and 2235 and 2329 | 2719 and 2657 and 2786 | 
34 |  | N[C@@H](CO)C(=O)O [Ser] | 1975 and 2036 and 2164 | 2605 and 2458 and 2545 | 
35 |  | NCCc1c[nH]c2ccc(O)cc12 [Seretonin] | 2356 and 2154 and 2332 | 2839 and 2852 and 2920 | 
36 |  | C[C@@H](O)[C@H](N)C(=O)O [Thr] | 2210 and 2213 and 2008 | 2547 and 2507 and 2558 | 
37 |  | N[C@@H](Cc1ccc(O)cc1)C(=O)O [Tyr] | 2192 and 2191 and 2186 | 2752 and 2715 and 2921 | 
38 |  | NCCc1ccc(O)cc1 [Tyramine] | 2132 and 2277 and 2369 | 2883 and 2932 and 2873 | 
39 |  | CC(C)[C@H](N)C(=O)O [Val] | 2072 and 2083 and 1977 | 2632 and 2689 and 2533 | 
40 |  | N[C@H](CCc1ccccc1)C(=O)O [d-Homo-phenylalanine] |  |  | % L-phenylalanine at 300 μM (average) (GPR139 [1]; [5]): 105%
41 | 125% | C[C@](N)(Cc1ccc(F)cc1)C(=O)O [α-methyl-4-Fluoro-L-phenylalanine] |  |  | 

Row | SMILES | activation at 300 µM (GPR139 [1]; [3]) | Activation levels (GTPγS binding signal), Ct-GO2Q (GO2Q alone; [4]) | Activation levels of GPR139 (GTPγS binding signal), GPR139-GO2Q (GPR139 [2]) | further results
42 | N[C@H](Cc1ccc(I)cc1)C(=O)O [4-Iodo-D-phenylalanine] | 125% |  |  | 
43 | N[C@@H](Cc1ccc(I)cc1)C(=O)O [4-Iodo-L-phenylalanine] | 116% |  |  | 
44 | CC(C)(C)OC(=O)N1Cc2ccccc2C[C@@H]1C(=O)O [(3R)-2-tert-butoxycarbonyl-3,4-dihydro-1H-isoquinoline-3-carboxylic acid] | 155% |  |  | 
